According to article PMC6934184, “Selective DNA-PKcs inhibition extends the therapeutic index of localized radiotherapy and chemotherapy” (The Journal of Clinical Investigation, 2019):

Molecular target: T1, HIPK1 (Myak) (Homo sapiens, UniProt Q86Z02)
T1 construct: purchased Thermo Fisher Scientific (Life Technologies) SelectScreen
Assay: SelectScreen Z'LYTE
Format: biochemical
Summary of the method: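 Compound tested in SelectScreen activity assays, Z'LYTE for CSF1R, CDK1/cyclin B and MAP2K6 and Adapta for CAMK1. ATP for CAMK1 was listed as 10, and Km app was used for CSF1R. Results are expressed in percent.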

T1 sequence (Q86Z02 whole entry): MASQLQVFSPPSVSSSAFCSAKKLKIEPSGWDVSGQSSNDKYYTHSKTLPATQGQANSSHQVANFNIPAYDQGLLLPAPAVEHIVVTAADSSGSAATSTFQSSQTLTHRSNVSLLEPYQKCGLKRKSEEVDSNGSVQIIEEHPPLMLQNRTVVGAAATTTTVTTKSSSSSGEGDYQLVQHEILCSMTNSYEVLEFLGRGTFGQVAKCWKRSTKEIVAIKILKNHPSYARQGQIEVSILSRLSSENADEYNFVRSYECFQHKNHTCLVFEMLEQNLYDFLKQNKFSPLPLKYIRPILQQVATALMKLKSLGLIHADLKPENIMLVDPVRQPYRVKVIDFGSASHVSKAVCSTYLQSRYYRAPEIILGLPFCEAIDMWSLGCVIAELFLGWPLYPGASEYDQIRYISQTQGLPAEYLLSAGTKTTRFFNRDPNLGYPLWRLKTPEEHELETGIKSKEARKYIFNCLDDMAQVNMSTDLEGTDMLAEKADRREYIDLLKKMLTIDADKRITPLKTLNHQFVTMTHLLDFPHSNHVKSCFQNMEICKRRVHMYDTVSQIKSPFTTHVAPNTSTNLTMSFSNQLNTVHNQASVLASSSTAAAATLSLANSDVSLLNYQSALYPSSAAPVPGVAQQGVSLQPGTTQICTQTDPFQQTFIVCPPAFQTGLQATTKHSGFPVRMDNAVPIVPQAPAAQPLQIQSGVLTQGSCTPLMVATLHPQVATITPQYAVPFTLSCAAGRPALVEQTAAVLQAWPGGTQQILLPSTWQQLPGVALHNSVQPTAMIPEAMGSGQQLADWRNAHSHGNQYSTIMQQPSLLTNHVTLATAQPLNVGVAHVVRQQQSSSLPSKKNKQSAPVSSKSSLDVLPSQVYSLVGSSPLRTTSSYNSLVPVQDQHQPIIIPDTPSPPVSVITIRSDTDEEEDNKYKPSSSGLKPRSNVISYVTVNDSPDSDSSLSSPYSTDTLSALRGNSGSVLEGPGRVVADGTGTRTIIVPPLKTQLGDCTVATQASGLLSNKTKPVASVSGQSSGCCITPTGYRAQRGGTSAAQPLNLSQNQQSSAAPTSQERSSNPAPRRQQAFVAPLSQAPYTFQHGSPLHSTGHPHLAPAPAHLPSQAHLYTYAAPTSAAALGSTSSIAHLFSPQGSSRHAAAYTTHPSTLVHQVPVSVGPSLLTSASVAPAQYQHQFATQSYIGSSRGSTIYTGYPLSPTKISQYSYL

## CN(C(=O)CN1CCOCC1)c1ccc2sc3c(-c4cccc5c(=O)cc(N6CC7CCC(C6)O7)oc45)cccc3c2c1 [NU5455]
  inhibition at 1 µM: 2.8%
